# Literature values, collected in US20240327780A1 (priority 2023, published 2024).
# Where a name gives a salt, the structure may show the parent alone.
# Tested on: SARS-CoV-2 nsp14
row,SMILES,inhibition of nsp14 in fluorescence-based screen
1,Fc1ccc(C(c2ccc(F)cc2)N2CCN(C/C=C/c3ccccc3)CC2)cc1 [flunarizine dihydrochloride],selective inhibitors
2,Clc1ccc2nsnc2c1NC1=NCCN1 [tizanidine hydrochloride],selective inhibitors
